Key:
Experiment in all cases: relative viability (nuclei count vs DMSO), 5 days (fraction); higher = more cells survive
Zosuquidar + Trametinib = compound: O[C@@H](COc1cccc2ncccc12)CN1CCN([C@@H]2c3ccccc3[C@@H]3[C@H](c4ccccc42)C3(F)F)CC1 [Zosuquidar] + CC(=O)Nc1cccc(-n2c(=O)n(C3CC3)c(=O)c3c(Nc4ccc(I)cc4F)n(C)c(=O)c(C)c32)c1 [Trametinib] (partner 0.02 µM)
Procedure, shortened: (§1)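 Lung cancer cell lines in 1536-well plates got either a single drug or a fixed anchor-drug dose together with five library-drug doses (not always all listed) in √10 steps, by pin tool, on the day after seeding. Nuclei were counted after 5 days, and relative viability is the treated-to-vehicle ratio of nuclei counts. Values are medians of duplicate plates.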

Kobe2602 + Olaparib = compound: C1=CC(=CC=C1NC(=S)NNC2=C(C=C(C=C2[N+](=O)[O-])C(F)(F)F)[N+](=O)[O-])F [Kobe2602] + O=C(c1cc(Cc2n[nH]c(=O)c3ccccc23)ccc1F)N1CCN(C(=O)C2CC2)CC1 [Olaparib] (partner 8 µM)
Procedure, shortened: as §1

[1] = compound: COc1cc2nccc(Oc3ccc(NC(=O)C4(C(=O)Nc5ccc(F)cc5)CC4)cc3)c2cc1OC [Cabozantinib] + CS(=O)(=O)N1CCN(Cc2cc3nc(-c4cccc5[nH]ncc45)nc(N4CCOCC4)c3s2)CC1 [Pictilisib] (partner 1 µM)
Procedure, shortened: as §1

[2] = compound: COc1cc2nccc(Oc3ccc(NC(=O)C4(C(=O)Nc5ccc(F)cc5)CC4)cc3)c2cc1OC [Cabozantinib] + Nc1nc2[nH]cc(CCc3ccc(C(=O)N[C@@H](CCC(=O)O)C(=O)O)cc3)c2c(=O)[nH]1 [Pemetrexed] (partner 0.2 µM)
Procedure, shortened: as §1

| Cell Line | relative viability (Zosuquidar + Trametinib; first compound 0.01 µM) | relative viability (Zosuquidar + Trametinib; first compound 0.03162 µM) | relative viability (Zosuquidar + Trametinib; first compound 0.1 µM) | relative viability (Zosuquidar + Trametinib; first compound 0.3162 µM) | relative viability (Zosuquidar + Trametinib; first compound 1 µM) | relative viability (Kobe2602 + Olaparib; first compound 0.2 µM) | relative viability (Kobe2602 + Olaparib; first compound 0.6325 µM) | relative viability (Kobe2602 + Olaparib; first compound 2 µM) | relative viability (Kobe2602 + Olaparib; first compound 6.325 µM) | relative viability (Kobe2602 + Olaparib; first compound 20 µM) | relative viability ([1]; first compound 0.02 µM) | relative viability ([1]; first compound 0.06325 µM) | relative viability ([1]; first compound 0.2 µM) | relative viability ([1]; first compound 2 µM) | relative viability ([2]; first compound 0.02 µM) | relative viability ([2]; first compound 0.06325 µM) | relative viability ([2]; first compound 0.2 µM) | relative viability ([2]; first compound 0.6325 µM) | relative viability ([2]; first compound 2 µM) | relative viability ([1]; first compound 0.6325 µM) |
| --- | --- | --- | --- | --- | --- | --- | --- | --- | --- | --- | --- | --- | --- | --- | --- | --- | --- | --- | --- | --- |
| CAL-12T | 0.327 | 0.449 | 0.262 | 0.442 | 0.32 | 0.697 | 0.685 | 0.678 | 0.707 | 0.784 | 0.364 | 0.411 | 0.383 | 0.336 | 1.37 | 1.14 | 1.25 | 1.19 | 1.09 |  |
| RERF-LC-KJ | 0.837 | 0.897 | 0.944 | 0.857 | 0.919 | 0.936 | 0.957 | 0.9 | 0.525 | 0.282 | 0.501 | 0.646 | 0.578 | 0.485 | 0.471 | 0.463 | 0.402 | 0.347 | 0.463 | 0.567 |
| NCI-H2347 | 0.268 | 0.268 | 0.276 | 0.311 | 0.297 | 0.603 | 0.548 | 0.559 | 0.53 | 0.607 | 0.893 | 0.726 | 0.897 | 0.592 | 0.422 | 0.481 | 0.429 | 0.442 | 0.371 | 0.497 |
| PC-14 | 0.826 | 0.753 | 0.862 | 0.83 | 0.706 | 0.24 | 0.356 | 0.256 | 0.259 | 0.101 | 0.722 | 0.761 |  | 0.689 | 0.113 | 0.141 |  | 0.126 | 0.129 | 0.76 |
| HCC-366 | 0.324 | 0.35 | 0.367 | 0.46 | 0.259 | 0.368 | 0.345 | 0.32 | 0.352 | 0.365 | 0.0953 | 0.105 | 0.158 | 0.113 | 0.189 | 0.214 | 0.173 | 0.156 | 0.15 | 0.0782 |
| LCLC-97TM1 | 0.171 | 0.19 |  | 0.21 | 0.206 | 0.365 | 0.416 |  | 0.437 | 0.383 |  | 0.2 | 0.152 | 0.32 | 0.155 | 0.179 | 0.181 | 0.17 | 0.17 | 0.296 |
| HCC-44 | 1.01 | 0.999 | 0.96 | 1.09 | 1.13 | 0.965 | 0.983 | 0.955 | 0.951 | 0.898 | 0.487 | 0.581 | 0.6 | 0.662 | 0.659 | 0.609 | 0.735 | 0.701 | 0.724 | 0.571 |
| A-427 | 0.795 | 0.871 | 0.77 | 0.82 | 0.741 | 0.74 | 0.726 | 0.73 | 0.785 | 0.701 | 0.657 | 0.785 | 0.638 | 0.744 | 0.949 | 1.04 | 0.995 | 1.02 | 1 | 0.773 |

From the supplement of paper PMC10307832
